Earlier results as cited in patent US20070053831A1, “Methods for binding agents to b-amyloid plaques” (priority 2003, published 2007).

System: amyloid plaques
Conditions: cited from earlier work

O=C(O)c1cc(/N=N/c2ccc(-c3ccc(/N=N/c4ccc(O)c(C(=O)O)c4)cc3)cc2)ccc1O [Chrysamine G]
ability to label amyloid plaques in Alzheimer's brain: appears weak
